# Test results reported in patent US20170058314A1, “NOVEL METHODOLOGY FOR IDENTIFYING ANTI-PERSISTER ACTIVITY AND ANTIMICROBIAL SUSCEPTIBILITY FOR BORRELIA BURGDORFERI AND OTHER BACTERIA” (priority 2014, published 2017).
# Assays:
# [1] = test system: stationary phase B. burgdorferi persisters (strain B31); experiment: epifluorescence microscope counting after SYBR Green I/PI staining, FDA drug screen; conditions: for viability at 50 µM: Borreliella burgdorferi, 168 h, read-out: Residual viable cells (epifluorescence microscope counting)
# [2] = test system: log phase E. coli culture; experiment: E. coli control, persister frequency by microscope counting after SYBR Green I/PI staining; type: cell-based, Escherichia coli; conditions: three hour log phase E. coli, 50 μg/mL amoxicillin for 3 hours
# [3] = test system: stationary phase B. burgdorferi persisters (strain B31); experiment: NCI compound library rescreen, epifluorescence microscope counting; conditions: Borreliella burgdorferi, 168 h
# [4] = test system: stationary phase B. burgdorferi; experiment: Subculture test of drug-treated stationary phase B. burgdorferi; type: cell-based, Borrelia burgdorferi
# Method: Seven-day-old B. burgdorferi culture (1×10^7 spirochetes/mL) (500 μL) was treated with drugs or drug combinations in Eppendorf tubes. After incubation at 33° C. for 7 days without shaking, the cells were collected by centrifugation and rinsed with 1 mL fresh BSK-H medium followed by resuspension in 500 μL fresh BSK-H medium without antibiotics. Then 50 μL of cell suspension was transferred to 1 mL fresh BSK-H medium for subculture at 33° C. for 2 weeks. Cell proliferation was assessed using SYBR Green I/PI assay and bacterial counting chamber (Hausser Scientific Partnership) by microscopy as described above.
# [5] = test system: stationary phase B. burgdorferi persisters (strain B31); experiment: NCI compound library screen, SYBR Green I/PI assay (plate reader)
# [6] = test system: B. burgdorferi log and stationary phase cultures; experiment: epi-fluorescence microscope counting after antibiotic exposure (persister frequency, planktonic forms); type: cell-based, Borrelia burgdorferi; conditions: for persister frequency (percentage of live cells after antibiotic treatment, in brackets): 3-day log phase culture
# Method: Specimens were examined on a Nikon Eclipse E800 microscope equipped with differential interference contrast (DIC) and epi-fluorescence illumination, and recorded with a Spot slider color camera. Cell proliferation assays were performed by direct counting using a bacterial counting chamber (Hausser Scientific Partnership) and DIC microscopy. SYBR Green I/PI assay was performed to assess the viability of B. burgdorferi. The ratio of live (green) and dead (red) B. burgdorferi was calculated by counting these cells using a bacterial counting chamber and epi-fluorescence microscopy. The three representative images of every sample were captured for quantitative analysis. Image Pro-Plus software was applied for measuring the biomass (fluorescence intensity) of different forms (spirochetes, round body, and microcolony) of B. burgdorferi as previously described (Shopov and Williams, 2000).
# To qualitatively determine the effect of antibiotics, 10 μL of each compound from the pre-diluted plate or pre-diluted stock was added to stationary phase B. burgdorferi culture in the 96-well plate. The final volume per well was adjusted to 100 μL at a concentration of 10 μg/mL for each antibiotic. Plates were sealed and placed in a 33° C. incubator for 7 days. The SYBR Green I/PI viability assay was used to assess the live and dead cells after antibiotic exposure as described (Feng, Wang, Shi, et al., 2014). Briefly, 10 μL of SYBR Green I (10,000×stock, Invitrogen) was mixed with 30 μL propidium iodide (PI, 20 mM) into 1.0 mL of sterile dH2O. Then, 10 μL of staining mixture was added to each well and mixed thoroughly. The plates were incubated at room temperature in the dark for 15 minutes followed by plate reading at excitation wavelength at 485 nm and the fluorescence intensity at 535 nm (green emission) and 635 nm (red emission) in microplate reader (HTS 7000 plus Bio Assay Reader, PerkinElmer Inc., USA). With least-square fitting analysis, the regression equation and regression curve of the relationship between percentage of live bacteria and green/red fluorescence ratios was obtained. The regression equation was used to calculate the percentage of live cells in each well of the 96-well plate.
# Therefore, the frequency of B. burgdorferi persisters in log phase and stationary phase cultures was assessed using the SYBR Green I/PI viability assay after exposure of the cultures to antimicrobials. E. coli culture was used as a control after exposure to antibiotics to validate the SYBR Green I/PI viability assay for persister frequency assessment.
# [7] = test system: log phase and stationary phase B. burgdorferi culture; experiment: Antibiotic exposure assay, SYBR Green I/PI (drugs alone and combinations); conditions: Borreliella burgdorferi, 168 h, read-out: Live Cell % (residual viable B. burgdorferi), ten-day-old stationary phase culture enriched with micro-colonies, 10 μg/mL each drug, 7 days
# Summary of the method: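 Stationary-phase or round-body B. burgdorferi exposed 7 days at 33 °C to drugs alone or combined at 10 μg/mL each (single-compound screen: 50 μM final). Viability by SYBR Green I/PI, ex 485, em 535/635 nm; percent live from regression of green/red ratio, corrected by direct microscopy counting.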
# [8] = test system: round body form of B. burgdorferi; experiment: SYBR Green I/PI assay on amoxicillin-induced round body form; conditions: for viability at 50 µM: Borreliella burgdorferi, 168 h, read-out: Residual viable cells (SYBR Green I/PI assay); for Ratios of green/red fluorescence, Primary screening / Ratios of green/red fluorescence, Rescreening (first column) / Ratios of green/red fluorescence, Rescreening (second column): round body form, 50 μM, 7 days
# [9] = test system: B. burgdorferi (growing, strain B31); experiment: MIC determination, standard microdilution method; type: cell-based, Borrelia burgdorferi; conditions: for MIC: Borreliella burgdorferi, growing B. burgdorferi, read-out: MIC
# [10] = test system: stationary phase B. burgdorferi persisters (strain B31); experiment: SYBR Green I/PI viability assay (plate reader), FDA-approved drug library screen; conditions: for Ratio of Green/Red fluorescence, Primary screening / Ratio of Green/Red fluorescence, Rescreening (first column) / Ratio of Green/Red fluorescence, Rescreening (second column): 7 days, stationary phase; for viability at 50 µM: Borreliella burgdorferi, 168 h, read-out: Residual viable cells (regression equation, SYBR Green I/PI assay)
# [11] = test system: log phase E. coli culture; experiment: E. coli control, persister frequency by standard plate colony count assay; type: cell-based, Escherichia coli; conditions: three hour log phase E. coli, 50 μg/mL amoxicillin for 3 hours
# [12] = test system: round body form of B. burgdorferi; conditions: 50 µM
# [13] = test system: E. coli strains (W3110, UTI89, CFT073, KTE181); experiment: Rapid SYBR Green/PI antibiotic susceptibility test; type: cell-based, Escherichia coli; conditions: 30 minutes; ampicillin 100 μg/mL, others 25 μg/mL
# [14] = test system: K. pneumoniae (Isolate 7); experiment: Rapid SYBR Green/PI antibiotic susceptibility test, 30 minutes; type: cell-based, Klebsiella pneumoniae; conditions: 25 μg/mL
# [15] = test system: S. aureus; conditions: Zhu et al., 2005; cited from earlier work
# [16] = read-out: Activity against persisters (residual viable cell percentage)
# [17] = read-out: Residual viable cells (epifluorescence microscope counting)
# [18] = 10 μg/mL, 7 days treatment, then subculture
# [19] = 10-day stationary phase culture
# [20] = 50 μM, 7-day old stationary phase cells treated for 7 days
smiles,measurement,setting,value
CC1(C)S[C@@H]2[C@H](NC(=O)[C@H](N)c3ccc(O)cc3)C(=O)N2[C@H]1C(=O)O [Amoxicillin],viability at 50 µM,[1],76%
same,E. coli control Persister frequency (epi-fluorescence microscope counting after SYBR Green I/PI staining),[2],4.4%
same,E. coli control Persister frequency (epi-fluorescence microscope counting after SYBR Green I/PI staining),[2]; listed as amoxicillin,4.4%
same,viability at 50 µM,[3]; [16],77%
same,viability at 20 µM,[3]; read-out: Residual viable cells (%) 20 μM (epifluorescence microscope counting),77%
same,viability at 50 µM,[3]; read-out: Residual viable cells (%) 50 μM (epifluorescence microscope counting),77%
same,viability at 50 µM,[3]; [17],77%
same,G/R ratio immediately after treatment,"[4]; 10 μg/mL, 7 days",7.16
same,G/R ratio after 7 day subculture,[4]; [18],6.32
same,G/R ratio after 15 day subculture,[4]; [18],7.23
same,Spirochetes after 7 day subculture (microscope counting),[4]; [18],1 × 10^6
same,Spirochetes after 15 day subculture (microscope counting),[4]; [18],6 × 10^6
same,Spirochetes after 15 day subculture (microscope counting),"[4]; 10 μg/mL, 7 days treatment, then subculture, listed as amoxicillin",~5×10^6
same,viability at 10 µg/mL,"[4]; Borreliella burgdorferi, 168 h, read-out: Residual viable cells (epifluorescence microscope counting)",80%
same,Residual viable cells (SYBR Green I/PI assay),"[5]; 50 μM, seven day old stationary phase culture, 7 days",71%
same,viability at 20 µM,"[5]; Borreliella burgdorferi, 168 h, read-out: Residual viable cells (%) 20 μM (SYBR Green I/PI assay), 20 μM, seven day old stationary phase, 7 days",77%
same,"persister frequency (percentage of live cells after antibiotic treatment, in brackets)",[6],(9.6%)
same,persister frequency (in brackets),[6]; 7-day stationary phase culture,(25%)
same,persister frequency (in brackets),[6]; [19],(~27%)
same,viability at 10 µg/mL,[7],75%
same,viability at 50 µM,[8],46%
same,"Ratios of green/red fluorescence, Primary screening",[8],6.53
same,"Ratios of green/red fluorescence, Rescreening (first column)",[8],6.59
same,"Ratios of green/red fluorescence, Rescreening (second column)",[8],6.52
same,MIC,[9],≤ 0.25 mg/L
same,"Ratio of Green/Red fluorescence, Primary screening",[10]; 50 μM,7.98
same,"Ratio of Green/Red fluorescence, Rescreening (first column)",[10]; 50 μM,7.86
same,"Ratio of Green/Red fluorescence, Rescreening (second column)",[10]; 50 μM,7.82
same,viability at 50 µM,[10],76%
same,E. coli control Persister frequency (standard plate colony count assay),[11],0.9%
same,E. coli control Persister frequency (standard plate colony count assay),[11]; listed as amoxicillin,0.9%
CO[C@@H]1[C@@H](O[C@@H]2O[C@H](C)[C@@H](O[C@H]3C[C@@](C)(O)[C@@H](OC(=O)CC(C)C)[C@H](C)O3)[C@H](N(C)C)[C@H]2O)[C@@H](CC=O)C[C@@H](C)C(=O)/C=C/[C@@H]2O[C@@H]2C[C@@H](C)OC(=O)C[C@H]1OC(C)=O [Carbomycin],Residual viable cells (epifluorescence microscope counting),[1]; [20],41%
same,Residual viable cells (SYBR Green I/PI assay),[12],43%
same,"sensitivity of log phase / multiplying B. burgdorferi (words, FIG. 12)",[9]; MIC test,very sensitive
same,"Residual viable cells (regression equation, SYBR Green I/PI assay)",[10]; [20],37%
same,"Ratio of Green/Red fluorescence, Primary screening",[10]; 50 μM,6.37
same,"Ratio of Green/Red fluorescence, Rescreening (first column)",[10]; 50 μM,6.81
same,"Ratio of Green/Red fluorescence, Rescreening (second column)",[10]; 50 μM,6.32
CO/N=C(\C(=O)N[C@@H]1C(=O)N2C(C(=O)O)=C(CSc3nc(=O)c(=O)[nH]n3C)CS[C@H]12)c1csc(N)n1 [Ceftriaxone],viability at 50 µM,[1],50%
same,"percent killed, sensitive strain W3110",[13],37%
same,killing of resistant K. pneumoniae strain,[14],not killed at all
same,"persister frequency (percentage of live cells after antibiotic treatment, in brackets)",[6],(5.8%)
same,persister frequency (in brackets),[6]; 7-day stationary phase culture,(16%)
same,persister frequency (in brackets),[6]; [19],(~25%)
same,viability at 10 µg/mL,[7],68%
same,viability at 50 µM,[8],36%
same,"Ratios of green/red fluorescence, Primary screening",[8],6.37
same,"Ratios of green/red fluorescence, Rescreening (first column)",[8],6.29
same,"Ratios of green/red fluorescence, Rescreening (second column)",[8],6.39
same,"Ratio of Green/Red fluorescence, Primary screening",[10]; 50 μM,6.74
same,"Ratio of Green/Red fluorescence, Rescreening (first column)",[10]; 50 μM,6.89
same,"Ratio of Green/Red fluorescence, Rescreening (second column)",[10]; 50 μM,6.78
same,viability at 50 µM,[10],44%
N[C@@H](C(=O)N[C@@H]1C(=O)N2C(C(=O)O)=C(Cl)CC[C@H]12)c1ccccc1 [Loracarbef],Residual viable cells (SYBR Green I/PI assay),[12],33%
same,"Ratios of green/red fluorescence, Primary screening",[8],6.35
same,"Ratios of green/red fluorescence, Rescreening (first column)",[8],6.25
same,"Ratios of green/red fluorescence, Rescreening (second column)",[8],6.24
"COc1cccc2c1C(=O)c1c(O)c3c(c(O)c1C2=O)C[C@@](O)(C(C)=O)C[C@@H]3OC1CC(N)C(O)C(C)O1.Cl (stereo partly shown) [NSC82151, Daunorubicin hydrochloride]",viability at 50 µM,[3]; [16],10%
same,viability at 50 µM,[3]; [17],10%
same,viability at 50 µM,"[5]; Borreliella burgdorferi, 168 h, read-out: Residual viable cells (SYBR Green I/PI assay)",0%
same,MIC,[9],≤ 0.35 mg/L
same,MIC against S. aureus,[15],8 to 32 mg/L
CO/N=C(\C(=O)N[C@@H]1C(=O)N2C(C(=O)O)=C(COC(C)=O)CS[C@H]12)c1csc(N)n1 [cefotaxime],"percent killed, sensitive strain W3110",[13],24%
same,killing of resistant K. pneumoniae strain,[14],not killed at all
COc1cccc2c1C(=O)c1c(O)c3c(c(O)c1C2=O)C[C@@](O)(C(=O)CO)C[C@@H]3O[C@H]1C[C@H](N)[C@H](O)[C@H](C)O1 [doxorubicin],bactericidal activity by microscopic counting,[1]; FDA drug screen,no bactericidal activity
same,activity against stationary phase B. burgdorferi (words; SYBR Green I/PI assay),[10]; FDA drug screen,very high activity
same,MIC against S. aureus,[15],0.12 to 0.5 mg/L
